Test results as given in patent US8178515B2, “β-hydroxy-γ-aminophosphonates and methods for the preparation and use thereof” (Nucitec S.A. de C.V., priority 2008, dated 2012).

Key:
WRL-68 cells [1] = test: Utilization of glucose in hepatic cells, in vitro hyperglycemia model (glucose and glycogen levels); type: cell-based, human; details: 24 hours; for reduction of extracellular glucose levels: conditioned media, 30 mM D-glucose medium
Protocol: WRL-68 cells were thawed and maintained in culture with Minimal Essential Medium (Gibco BRL) containing 4 mM Glutamine, 1% non essential aminoacids (Gibco BRL), 10% Fetal Calf Serum (FCS), and 100 μg/ml of ampicillin. WRL-68 cells were seeded at […] in complete media in 75 cm^2 cell culture flasks, cells were maintained for 24 hours at 37° C. under an atmosphere of 5% CO2. The medium was changed after 24 hr. Cells were passaged by trypsinization using a 0.025% trypsin solution containing 0.01% N,N,-di-ethyldithiocarbamic acid sodium salt (EDTA). In order to evaluate the effect of analog of carnitine on utilization of glucose levels a model of hyperglycemia in vitro (Nakajina et al., J. Biol. Chem. 275:20880-20886 (2000)) was developed. Two days after plating, the medium was changed to F-12K containing 7 mM D-glucose and 10% fetal bovine serum, and the culture was continued for 2 more days. The cells were then cultured in serum-free F-12K medium containing 30 mM D-glucose for 24 h. Cells were treated with the diastereomeric mixture of compound 7 at concentrations of 0.01, 0.1, 1,10, 100 μM, and 1 mM and 2 mM during 24 hours. Samples of conditioned media and cell lysates were kept to […]. Glucose and glycogen levels were measured by using a Glucose PAP-SL Kit (Tech, USA) and glycogen assay kit (Biovision Research Products, California, USA).

chick embryos = test: Teratogenicity assay in chick embryos; details: for Deaths (embryos / total examined) / Embryonic region affected: Axial skeleton (abnormal embryos / total examined) / Embryonic region affected: CNS (abnormal embryos / total examined) / Embryonic region affected: Heart (abnormal embryos / total examined) / Embryonic region affected: Somites (abnormal embryos / total examined) / Embryonic region affected: Vasculature (abnormal embryos / total examined): 48 h of exposition
Protocol: A teratogenicity assay was carried out as described by Jelinek et al., Func. Devel. Morph. 4:317-23 (1994). Fertile White Leghorn chicken eggs were obtained from A.L.P.E. S.A. (Puebla, Mexico) and were stored at 6° C. Sixty fertilized eggs were weighed, sterilized, and divided into […]. First group served as a non-treated control. The next three were exposed to the diastereomeric mixture of compound 7 (1, 10, and 100 μM). The last group received caffeine (10 mg/mL) and as positive control. Test solutions (1 mL) were added to the air sac under sterile conditions. Each solution was injected after drilling into the shell at the blunt end of the egg; after injection, the holes were immediately sealed with melted paraffin wax. The eggs were then transferred and maintained in a forced draft incubator at 37.5° C. with a relative humidity of 55% until the desired stage of development was reached.
To determine the concentration dependency of the diastereomeric mixture of compound 7, a histological analysis was carried out. Embryos in each group were fixed in buffered formal saline (pH 7.4), dehydrated, and embedded in paraffin blocks. Paraffin tissue sections of 6 μm were stained with acetocarmine for routine histological examination.

WRL-68 cells [2] = test system: WRL-68 cells
Protocol: (§1) Two cell lines were used for this study: 293Q cells derived from normal epithelial cells of human fetal kidney (CRL-1573 ATCC) and WRL-68 cells derived from epithelial cells of human liver (CRL-48 ATCC). Cell lines were cultured in minimal essential medium (MEM, GIBCO BRL Inc., Grand Island, N.Y.), supplemented with nonessential amino acids (GIBCO BRL Inc., Grand Island, N.Y.), 10% fetal calf serum (GIBCO BRL Inc., Grand Island, N.Y.), 1-glutamine (2 mol/L), and antibiotics. Cells were plated in 100-mm culture dishes (10^6 cells/dish), and maintained at 37° C. under an atmosphere of 5% CO2 in humidified air. Subcultures were obtained by trypsinization (0.025% trypsin solution containing 0.01% N,N-diethyldithiocarbamic acid sodium salt, EDTA). For cytological investigation, 10^5 cells per mL of MEM medium were used. […] After incubation of the cells with the extract, they were collected for further cytological investigations.
(§2) Cells were incubated in 96-well plates. After 24 h, the medium was removed; the cells were washed twice with PBS and then incubated with analog. […] Cell viability was measured by a 3-(4,5-dimethylthiazol-2-yl)-2,5-diphenyltetrazolium bromide (MTT) assay (Wang et al., Journal Ocular. Pharm. Ther. 12: 35-43 (1996)). […] When the blue crystals were dissolved, the optical density was determined on a microplate reader at 450 nm. […]

Protocol for 293Q cells: as §1, §2

SMILES: CC(C)CC(C(O)CP(=O)(O)O)[N+](C)(C)C.[I-] (single isomer, unassigned) [diastereomeric mixture of compound 7]
- reduction of extracellular glucose levels (WRL-68 cells [1]; 1 μM): 16%
- reduction of extracellular glucose levels (WRL-68 cells [1]; 10 μM): 18%
- reduction of extracellular glucose levels (WRL-68 cells [1]; 100 μM): 23%
- reduction of extracellular glucose levels (WRL-68 cells [1]; 1 mM): 30%
- cellular glycogen levels (WRL-68 cells [1]; 2 mM): increase
- reduction of extracellular glucose levels (WRL-68 cells [1]; 2 mM): 32%
- changes in cellular glucose (WRL-68 cells [1]; any concentration (0.01 μM to 2 mM)): No changes
- alterations in embryos (histological analysis) (chick embryos; in vivo): No alterations
- effects on cell proliferation (MTT) (WRL-68 cells [2]): did not show citotoxicity or effects on cell proliferation
- effects on cell proliferation (MTT) (293Q cells): did not show citotoxicity or effects on cell proliferation

SMILES: Cn1c(=O)c2c(ncn2C)n(C)c1=O [Caffeine, caffeine, reference compound]
- Deaths (embryos / total examined) (chick embryos; positive control, 10 mg/mL): 2/10
- Embryonic region affected: Axial skeleton (abnormal embryos / total examined) (chick embryos; positive control, 10 mg/mL): 10/10
- Embryonic region affected: CNS (abnormal embryos / total examined) (chick embryos; positive control, 10 mg/mL): 8/10
- Embryonic region affected: Heart (abnormal embryos / total examined) (chick embryos; positive control, 10 mg/mL): 8/10
- Embryonic region affected: Somites (abnormal embryos / total examined) (chick embryos; positive control, 10 mg/mL): 8/10
- Embryonic region affected: Vasculature (abnormal embryos / total examined) (chick embryos; positive control, 10 mg/mL): 6/10

SMILES: CC(C)C[C@@H]([C@@H](O)CP(=O)(O)O)[N+](C)(C)C.[I-] [compound 7, (2R,3S)-(2-hydroxy-5-methyl-3-trimethylamonium-hexyl)-phosphonic acid; iodide]
- Deaths (embryos / total examined) (chick embryos; 1 μM): 0/10
- Embryonic region affected: Axial skeleton (abnormal embryos / total examined) (chick embryos; 1 μM): 0/10
- Embryonic region affected: CNS (abnormal embryos / total examined) (chick embryos; 1 μM): 0/10
- Embryonic region affected: Heart (abnormal embryos / total examined) (chick embryos; 1 μM): 0/10
- Embryonic region affected: Somites (abnormal embryos / total examined) (chick embryos; 1 μM): 0/10
- Embryonic region affected: Vasculature (abnormal embryos / total examined) (chick embryos; 1 μM): 0/10
- Deaths (embryos / total examined) (chick embryos; 100 μM): 0/10
- Embryonic region affected: Axial skeleton (abnormal embryos / total examined) (chick embryos; 100 μM): 0/10
- Embryonic region affected: CNS (abnormal embryos / total examined) (chick embryos; 100 μM): 0/10
- Embryonic region affected: Heart (abnormal embryos / total examined) (chick embryos; 100 μM): 0/10
- Embryonic region affected: Somites (abnormal embryos / total examined) (chick embryos; 100 μM): 0/10
- Embryonic region affected: Vasculature (abnormal embryos / total examined) (chick embryos; 100 μM): 0/10
- Deaths (embryos / total examined) (chick embryos; 1 mM): 0/10
- Embryonic region affected: Axial skeleton (abnormal embryos / total examined) (chick embryos; 1 mM): 0/10
- Embryonic region affected: CNS (abnormal embryos / total examined) (chick embryos; 1 mM): 0/10
- Embryonic region affected: Heart (abnormal embryos / total examined) (chick embryos; 1 mM): 0/10
- Embryonic region affected: Somites (abnormal embryos / total examined) (chick embryos; 1 mM): 0/10
- Embryonic region affected: Vasculature (abnormal embryos / total examined) (chick embryos; 1 mM): 0/10
